Values of other authors, collected in patent US11414421B2, “Process for the preparation of ribociclib succinate and its novel crystalline forms thereof” (NATCO PHARMA LTD, priority 2018, dated 2022).
Where two headings read alike, the source gives them in different places.

absorbs moisture (relative humidity 0-90-0% RH): up to 2.0%
absorbs moisture (second value, printed as 0-90-0% RH): up to 0.5%
Compound: CN(C)C(=O)c1cc2cnc(Nc3ccc(N4CCNCC4)cn3)nc2n1C1CCCC1.O=C(O)CCC(=O)O [Ribociclib succinate, 7-cyclopentyl-N,N-dimethyl-2-{[5-(piperazin-1-yl)pyridin-2-yl]amino}-7H-pyrrolo [2,3-d]pyrimidine-6-carboxamide succinate (1/1)]
